Reference: patent publication US9937151B2, “Carbapenem antibacterials with gram-negative activity” (priority 2010, dated 2018)
Values after ≈ are worked out from the molar mass of the structure shown.

Test system: G(−) bacterial strains
Test: Dilution antimicrobial susceptibility tests (MIC, NCCLS agar dilution / broth dilution)
Type: cell-based, Gram-negative organisms
Details: unit assumed
Outline: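 Agar dilution on Mueller-Hinton agar at 10^4 CFU/spot and broth dilution at 5×10^5 CFU/well, per NCCLS M7-A5. Streptococci tested on Mueller-Hinton agar with 5% sheep blood. MIC taken as minimum inhibitory concentration; ATCC control strains run alongside.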

[1] = strain #1 Acinetobacter calcoaceticus
[2] = strain #2 Acinetobacter baumannii, Cf-R, Ci-R
[3] = strain #3 Acinetobacter baumannii, Cf-R, Ci-R, Mp-I
[4] = strain #4 Acinetobacter baumannii, Cf-R, Imp-I, CBPase
[5] = strain #7 Enterobacter aerogenes
[6] = strain #8 Enterobacter cloacae, Cf-R, B+
[7] = strain #9 Enterobacter cloacae, Cf-R
[8] = strain #10 Escherichia coli, Ci-R
[9] = strain #11 Escherichia coli, Ci-R, AmpC
[10] = strain #15 Klebsiella pneumoniae
[11] = strain #16 Moraxella catarrhalis
[12] = strain #21 Providencia rettgeri
[13] = strain #22 Salmonella typhimurium
[14] = strain #25 Shigella dysenteriae
[15] = strain #28 Stenotrophomonas maltophilia
[16] = strain #29 Pseudomonas aeruginosa
[17] = strain #30 Pseudomonas aeruginosa
[18] = strain #31 Pseudomonas aeruginosa, Ofx-R
[19] = strain #32 Pseudomonas aeruginosa, Cf-R
[20] = strain #33 Pseudomonas aeruginosa, Ci-R
[21] = strain #34 Pseudomonas aeruginosa, Gen-R
[22] = strain #35 Pseudomonas aeruginosa, Ip-R
[23] = strain #36 Pseudomonas aeruginosa, Cf-R, Ci-R, Mp-R

Row | SMILES | MIC [1] | MIC [2] | MIC [3] | MIC [4] | MIC (strain #5 Citrobacter diversus) | MIC (strain #6 Citrobacter freundii) | MIC [5] | MIC [6] | MIC [7] | MIC [8] | MIC [9] | MIC (strain #12 Escherichia coli) | MIC (strain #13 Escherichia coli) | MIC (strain #14 Klebsiella oxytoca) | MIC [10] | MIC [11] | MIC (strain #17 Morganella Morganii) | MIC (strain #18 Morganella Morganii) | MIC (strain #19 Proteus vulgaris) | MIC (strain #20 Proteus mirabilis) | other results
1 | CC(=O)NC(=N)N[C@H]1CCN(CC2=C(C(=O)O)N3C(=O)C([C@@H](C)O)C3[C@H]2C)C1 (stereo partly drawn) [Compound 111] | 1 mg/L (≈ 2.54 µM) | 4 mg/L (≈ 10.2 µM) | 4 mg/L (≈ 10.2 µM) | 4 mg/L (≈ 10.2 µM) | 0.5 mg/L (≈ 1.27 µM) | 0.5 mg/L (≈ 1.27 µM) | 2 mg/L (≈ 5.08 µM) | 1 mg/L (≈ 2.54 µM) | 1 mg/L (≈ 2.54 µM) | 0.5 mg/L (≈ 1.27 µM) | 0.5 mg/L (≈ 1.27 µM) | 0.5 mg/L (≈ 1.27 µM) | 0.5 mg/L (≈ 1.27 µM) | 1 mg/L (≈ 2.54 µM) | 1 mg/L (≈ 2.54 µM) | ≤ 0.008 mg/L | 4 mg/L (≈ 10.2 µM) | 2 mg/L (≈ 5.08 µM) | 2 mg/L (≈ 5.08 µM) | 0.5 mg/L (≈ 1.27 µM) | MIC [12]: 2 mg/L (≈ 5.08 µM); MIC [13]: 0.5 mg/L (≈ 1.27 µM); MIC (strain #23 Serratia marcescens): 1 mg/L (≈ 2.54 µM); MIC (strain #24 Serratia marcescens): 2 mg/L (≈ 5.08 µM); MIC [14]: 0.5 mg/L (≈ 1.27 µM); MIC (strain #26 Shigella sonnei): 0.5 mg/L (≈ 1.27 µM); MIC (strain #27 Shigella flexneri): 0.5 mg/L (≈ 1.27 µM); MIC [15]: 0.5 mg/L (≈ 1.27 µM); MIC [16]: 4 mg/L (≈ 10.2 µM); MIC [17]: 4 mg/L (≈ 10.2 µM); MIC [18]: 1 mg/L (≈ 2.54 µM); MIC [19]: 4 mg/L (≈ 10.2 µM); MIC [20]: 8 mg/L (≈ 20.3 µM); MIC [21]: 4 mg/L (≈ 10.2 µM); MIC [22]: 8 mg/L (≈ 20.3 µM); MIC [23]: > 32 mg/L
2 | C[C@@H](O)C1C(=O)N2C(C(=O)O)=C(CN3CC(N)C3)[C@H](C)C12 (stereo partly drawn) [Compound 93] | 1 mg/L (≈ 3.39 µM) | 2 mg/L (≈ 6.77 µM) | 8 mg/L (≈ 27.1 µM) | 2 mg/L (≈ 6.77 µM) | 0.25 mg/L (≈ 0.846 µM) | 0.5 mg/L (≈ 1.69 µM) | 2 mg/L (≈ 6.77 µM) | 0.25 mg/L (≈ 0.846 µM) | 0.5 mg/L (≈ 1.69 µM) | 0.25 mg/L (≈ 0.846 µM) | 0.25 mg/L (≈ 0.846 µM) | 0.25 mg/L (≈ 0.846 µM) | 0.5 mg/L (≈ 1.69 µM) | 0.5 mg/L (≈ 1.69 µM) | 0.5 mg/L (≈ 1.69 µM) | 0.031 mg/L (≈ 0.105 µM) | 8 mg/L (≈ 27.1 µM) | 4 mg/L (≈ 13.5 µM) | 2 mg/L (≈ 6.77 µM) | 0.5 mg/L (≈ 1.69 µM) | MIC [12]: 2 mg/L (≈ 6.77 µM); MIC [13]: 0.5 mg/L (≈ 1.69 µM); MIC (strain #23 Serratia marcescens): 1 mg/L (≈ 3.39 µM); MIC (strain #24 Serratia marcescens): 1 mg/L (≈ 3.39 µM); MIC [14]: 0.5 mg/L (≈ 1.69 µM); MIC (strain #26 Shigella sonnei): 0.5 mg/L (≈ 1.69 µM); MIC (strain #27 Shigella flexneri): 0.25 mg/L (≈ 0.846 µM); MIC [15]: 0.5 mg/L (≈ 1.69 µM); MIC [16]: 4 mg/L (≈ 13.5 µM); MIC [17]: 4 mg/L (≈ 13.5 µM); MIC [18]: 4 mg/L (≈ 13.5 µM); MIC [19]: 4 mg/L (≈ 13.5 µM); MIC [20]: 8 mg/L (≈ 27.1 µM); MIC [21]: 8 mg/L (≈ 27.1 µM); MIC [22]: 16 mg/L (≈ 54.2 µM); MIC [23]: 16 mg/L (≈ 54.2 µM)
3 | C[C@@H](O)C1C(=O)N2C(C(=O)O)=C(CN3CC[C@H](C(N)=O)C3)[C@H](C)C12 (stereo partly drawn) [Compound 12] | 0.5 mg/L (≈ 1.48 µM) | 0.5 mg/L (≈ 1.48 µM) | 2 mg/L (≈ 5.93 µM) | 1 mg/L (≈ 2.96 µM) | 0.13 mg/L (≈ 0.385 µM) | 0.25 mg/L (≈ 0.741 µM) | 1 mg/L (≈ 2.96 µM) | 0.13 mg/L (≈ 0.385 µM) | 0.25 mg/L (≈ 0.741 µM) | 0.13 mg/L (≈ 0.385 µM) | 0.13 mg/L (≈ 0.385 µM) | 0.13 mg/L (≈ 0.385 µM) | 0.25 mg/L (≈ 0.741 µM) | 0.5 mg/L (≈ 1.48 µM) | 0.5 mg/L (≈ 1.48 µM) | ≤ 0.008 mg/L | 2 mg/L (≈ 5.93 µM) | 1 mg/L (≈ 2.96 µM) | 0.5 mg/L (≈ 1.48 µM) | 0.25 mg/L (≈ 0.741 µM) | MIC [12]: 1 mg/L (≈ 2.96 µM); MIC [13]: 0.25 mg/L (≈ 0.741 µM); MIC (strain #23 Serratia marcescens): 0.5 mg/L (≈ 1.48 µM); MIC (strain #24 Serratia marcescens): 1 mg/L (≈ 2.96 µM); MIC [14]: 0.25 mg/L (≈ 0.741 µM); MIC (strain #26 Shigella sonnei): 0.25 mg/L (≈ 0.741 µM); MIC (strain #27 Shigella flexneri): 0.25 mg/L (≈ 0.741 µM); MIC [15]: 0.25 mg/L (≈ 0.741 µM); MIC [16]: 4 mg/L (≈ 11.9 µM); MIC [17]: 4 mg/L (≈ 11.9 µM); MIC [18]: 1 mg/L (≈ 2.96 µM); MIC [19]: 4 mg/L (≈ 11.9 µM); MIC [20]: 4 mg/L (≈ 11.9 µM); MIC [21]: 4 mg/L (≈ 11.9 µM); MIC [22]: 8 mg/L (≈ 23.7 µM); MIC [23]: 32 mg/L (≈ 94.8 µM)
